The values that follow come from patent US12173061B2, “Compositions and methods for treatment of chronic lung diseases” (Board of Regents, The University of Texas System, priority 2021, dated 2024).

In data set [1] the test system is BLM-induced pulmonary fibrosis. Nature of the data set: BLM-induced established pulmonary fibrosis in mice, treatment d14-d21. The class given is in vivo. To be noted: for BLM-induced pulmonary fibrosis (overall): mice, 1.0 U/kg BLM IT, peptide 10 mg/kg/d IP daily for 7 days starting d14; for lung compliance / lung elastance: flexiVent; for whole lung total hydroxyproline: lung homogenates. As for the experimental part: FIGS. 9A-9O. M9 peptide and protein mitigated BLM-induced pulmonary fibrosis. Mice exposed to saline or 1.0 U/kg BLM by intratracheal instillation were treated with or without M9 peptide HGHVDPVKTPKI (SEQ ID NO: 4) (10 mg/kg/d) and M9 protein (SEQ ID NO: 1) 7.5 mg/kg/d) via IP injection daily for 7 days starting d14 after BLM injury. FIG. 9A: Representative micro-CT images at d21 after BLM exposure. FIG. 9B: Lung volumes were measured by quantitative-CT renditions. Lung compliance (FIG. 9C) and elastance (FIG. 9D) were measured using a flexiVent system. Lung weights (FIG. 9E) and body weights (FIG. 9F) are presented as bar graphs. Lung homogenates were tested for hydroxyproline (FIG. 9G), soluble collagen (FIG. 9H), pro-fibrogenic marker proteins (FIG. 9I) and mRNAs (FIG. 9J). Bars indicate mean±SD. Statistical significance (*P<0.05, **P<0.01, ***P<0.001 and ****P<0.0001) was assessed by one-way ANOVA with Turkey's multiple comparison. fLfs isolated from IPF lungs treated with PBS or recombinant full length M9 (rM9^FL) protein (2 μg/ml) for 48 h in vitro were tested for pro-fibrogenic proteins (FIG. 9L). fLfs (from IPF lungs) treated with PBS or extracellular domain of rM9^FL protein (rM9^ECD) as in FIG. 9L were tested for pro-fibrogenic proteins (FIG. 9N). The survival the mice treated with rM9^FL is shown FIG. 9M.
FIGS. 10A-10K. UNC5A (“U5”) peptide/protein mitigated BLM-induced pulmonary fibrosis. Mice exposed to saline or 1.0 U/kg BLM by intratracheal instillation were treated with or without U5 peptide (50 residues, SEQ ID NO: 7) (10 mg/kg/d) and full length U5 protein (SEQ ID NO: 5) (7.5 mg/kg/d) via IP injection daily for 7 days starting d14 after BLM injury. FIG. 10A: Representative micro-CT images at d21 after BLM exposure. FIG. 10B: Lung volumes were measured by quantitative-CT renditions. Lung compliance (FIG. 10C) and elastance (FIG. 10D) were measured using a flexiVent system. Lung weights (FIG. 10E) and body weights (FIG. 10F) are presented as bar graphs. Lung homogenates were tested for hydroxyproline (FIG. 10G), soluble collagen (FIG. 10H), pro-fibrogenic marker proteins (FIG. 10I) and mRNAs (FIG. 10J). Bars indicate mean±SD. Statistical significance (*P<0.05, **P<0.01, ***P<0.001 and ****P<0.0001) was assessed by one-way ANOVA with Turkey's multiple comparison.
FIGS. 11A-11K. ALG5 (“A5”) protein mitigated BLM-induced pulmonary fibrosis. Mice exposed to saline or 1.0 U/kg BLM by intratracheal instillation were treated with or without A5 protein (SEQ ID NO: 9) (7.5 mg/kg/d) via IP injection daily for 7 days starting d14 after BLM injury. FIG. 11A: Representative micro-CT images at d21 after BLM exposure. FIG. 11B: Lung volumes were measured by quantitative-CT renditions. Lung compliance (FIG. 11C) and elastance (FIG. 11D) were measured using a flexiVent system. Lung weights (FIG. 11E) and body weights (FIG. 11F) are presented as bar graphs. Lung homogenates were tested for hydroxyproline (FIG. 11G), soluble collagen (FIG. 11H), pro-fibrogenic marker proteins (FIG. 11I) and mRNAs (FIG. 11J). Bars indicate mean±SD. *P<0.05, **P<0.01, ***P<0.001 and ****P<0.0001 were obtained by one-way ANOVA with Turkey's multiple comparison.
FIGS. 12A-12E. WT mice with BLM-PF were treated with or without rM9^ECD (1.5 mg/kg) via intratracheal (IT) instillation daily for 7 d starting d 14 after BLM. Survival (FIG. 12A), body weights (FIG. 12B), lung volumes (FIG. 12C) and lung weights (FIG. 12D) were measured on d 21 post-BLM. Lung homogenates were tested for soluble collagen (FIG. 12E).
FIGS. 13A-13B. FIG. 13A: fLfs (IPF) treated with PBS or M9^mAb (2 μg/ml) or control IgG, tested for pro-fibrogenic proteins (i) and mRNAs (ii). FIG. 13B: WT mice with BLM-PF were left untreated, or intraperitoneal (IP) injected with control IgG or M9^mAb (2.5 mg/kg) daily for 7 d starting 14 d after IT BLM. Body weights (i) and total lung hydroxyproline (ii), and soluble collagen (iii) were measured. […]

In data set [2] the test system is pulmonary fibrosis after lung injury. To be noted: cited from earlier work; for subsequent pulmonary fibrosis: after BLM, prior work; for PF in mice after single (1×) or multi-hit (8×) BLM-, Ad-TGF-β1-, silica- and thoracic radiation-induced lung injury: prior work of the inventor's group.
In data set [3] the test system is AECs / lung epithelial cells (LECs). To be noted: cited from earlier work; for BLM-induced apoptosis of lung epithelial cells (LECs): in vitro and in vivo, prior work; for AEC apoptosis: prior work of the inventor's group.
The next data set deals with fLfs. To be noted: prior work of the inventor's group; cited from earlier work.
Setting [4] is: peptide 10 mg/kg/d IP, 7 days starting d14 after BLM.
Setting [5] is: peptide 10 mg/kg/d IP, 7 days starting d14 after BLM, d21.

With “HGHVDPVKTPKI (listed as Homo sapiens) [M9 peptide]”, the “BLM-induced pulmonary fibrosis (overall)” value in data set [1] (d21) was “mitigated”. Also, the “BLM-induced pulmonary fibrosis (overall)” value in data set [1] (d21, listed as M9 12-Mer Peptide) is reported as “Mitigated”. For the same substance, the “BLM-induced pulmonary fibrosis (overall)” value in data set [1] (d21, listed as SEQ ID NO: 4) is given as “resolved”. In data set [1] (setting [4]), the “BLM-induced fibrogenic marker proteins (Col1, FN, TN-C, α-SMA) in whole lung homogenates” value is recorded as “marked inhibition”; the body weight result is listed as “improvement”; the “collagen and other extracellular matrix deposits (Trichrome staining of lung sections)” value is on record as “remarkable reduction”; the “fibrogenic marker transcripts in whole lung homogenates” value is “marked inhibition”. In data set [1] (setting [4]), the lung weight entry is “reduction” and the “whole lung total hydroxyproline” value is given as “significant inhibition”. For the same substance, in data set [1] (setting [5]), the lung compliance entry is “improved” and the lung elastance result is given as “improved”. In data set [1] (peptide 10 mg/kg/d IP, 7 days starting d14 after BLM, quantitative CT, d21), the lung volume result was “improved”.

Regarding “NYHYLESSMTALYTLGH (listed as Homo sapiens) [PP-2]”, in data set [2], the subsequent pulmonary fibrosis entry is on record as “prevented”. In data set [3], the “BLM-induced apoptosis of lung epithelial cells (LECs)” value was “protected”.

As for FTTFTVT (listed as Homo sapiens) [CSP7], in data set [2] (prior work (Marudamuthu et al., 2019)), the tolerability in mice entry is on record as “well-tolerated”. In addition, the “PF in mice after single (1×) or multi-hit (8×) BLM-, Ad-TGF-β1-, silica- and thoracic radiation-induced lung injury” value in data set [2] is “blocked”. In addition, in data set [3], the AEC apoptosis result was “inhibited”. Besides, the fLf expansion result with fLfs was “inhibited”.

As for “DGIWKASFTTFTVTKYWFYR (listed as Homo sapiens) [CSP]”, in data set [2], the subsequent pulmonary fibrosis entry is listed as “prevented”; the “PF in mice after single (1×) or multi-hit (8×) BLM-, Ad-TGF-β1-, silica- and thoracic radiation-induced lung injury” value is given as “blocked”. For the same substance, in data set [3], the “BLM-induced apoptosis of lung epithelial cells (LECs)” value is given as “protected” and the AEC apoptosis entry is “inhibited”. For the same substance, the fLf expansion result in the data set on fLfs is given as “inhibited”.

For “VYCRKKEGLDSDVADSSILTSGFQPVSIKPSKADNPHLLTIQPDLSTTTT (VYCRKKEGLDSDVADSSILTSGFQPVSIKPSKADNPHLLTIQPDLSTTTT; listed as Homo sapiens) [U5A peptide]”, in data set [1] (d21, listed as U5A 50-Mer Peptide), the “BLM-induced pulmonary fibrosis (overall)” value was “Mitigated”. In addition, the “BLM-induced pulmonary fibrosis (overall)” value in data set [1] (d21, listed as U5 peptide) is recorded as “mitigated”. Moreover, in data set [1] (setting [4]), the “BLM-induced fibrogenic marker proteins (Col1, FN, TN-C, α-SMA) in whole lung homogenates” value was “inhibition”; the body weight result is given as “improvement”; the “collagen and other extracellular matrix deposits (Trichrome staining of lung sections)” value is “reduction”; the “fibrogenic marker transcripts in whole lung homogenates” value is given as “inhibition”. In data set [1] (setting [4]), the lung weight entry is reported as “reduction” and the “whole lung total hydroxyproline” value is on record as “reduction”. In data set [1] (setting [5]), the lung compliance result was “improved” and the lung elastance entry was “improved”.
